Assay results taken from patent US6482850B2, “Hydrolysis-promoting hydrophobic taxane derivatives” (priority 1995, dated 2002).

Assays:
[1] = system: A549 human lung cancer; test: s.c. A549 tumor, i.v. treatment, tumor volume (FIG. 8); assay type: in vivo, mice
From the text: Mice were sacrificed when the average tumor volume of the group reached 1500 mm^3.

[2] = system: OVCAR-3 human ovarian cancer; test: s.c. OVCAR-3 tumor, i.v. treatment, tumor volume (FIG. 7); assay type: in vivo, mice
Method: OVCAR-3 human ovarian cancer.
The tumor volume (mm^3) from tumor measurement was calculated: (Length * (Width/2)^2 * π). Mice were sacrificed when the average tumor volume of the group reached 1500 mm^3.

CCCCCCCCCCCCCC[C@@H](Br)C(=O)O[C@@H](C(=O)O[C@H]1C[C@@]2(O)[C@@H](OC(=O)c3ccccc3)[C@@H]3[C@]4(OC(C)=O)CO[C@@H]4C[C@H](O)[C@@]3(C)C(=O)[C@H](OC(C)=O)C(=C1C)C2(C)C)[C@@H](NC(=O)c1ccccc1)c1ccccc1 [BrC16HT, 2′-(R)-[2-bromohexadecanoyl] paclitaxel]
efficacy compared with Taxol® at 25 mg/kg ([1]; all early treatment schedules (FIGS. 8a-c), BrC16HT at 12.5 or 25 mg/kg i.v.): more effective than Taxol® at 25 mg/kg | tumor regression compared with Taxol® ([1]; delayed schedule, days 20, 22, 24, 26 and 28, 25 mg/kg i.v. (FIG. 8d)): greater and more prolonged tumor regression | tumor growth vs. control ([1]; i.v., independent of the dose schedule, BrC16HT 12.5-25 mg/kg, Taxol® 25 mg/kg): significantly (p <0.05 vs. control) inhibited the tumor growth | delaying tumor growth ([2]; 12.5 mg/kg i.v. on days 1, 3, 5, 7 & 9): approximately 79 days | tumor growth suppression ([2]; 25 mg/kg i.v. on days 1, 3, 5, 7 & 9): suppressed tumor growth completely up to 120 days post-implantation | tumor growth vs. control ([2]; i.v. on days 1, 3, 5, 7 & 9, BrC16HT 12.5-25 mg/kg, Taxol® 25 mg/kg): significantly (p<0.05 vs. control) inhibited the tumor growth
